According to patent USRE30456E, “2-Substituted phenyl-s-triazolo[5,1-a] isoquinoline compounds” (Gruppo Lepetit S.p.A., priority 1973, dated 1980):

Test system: carrageenin induced edema
Experiment: carrageenin test in rats (anti-inflammatory activity)
Format: in vivo
Description: The anti-inflammatory activity of some inventive compounds was evidenced by means of the carrageenin test in rats.

Sc1nc2n(n1)CCc1ccccc1-2 [Example 38, 2-Sulfhydryl-5,6-dihydro-s-triazolo[5,1-a]isoquinoline] was tested, and the “inhibition of the carrageenin induced edema” value (50 mg./kg. p.o.) was “about 35%”.

NC(=O)Nc1nc2n(n1)CCc1ccccc1-2 [Example 54, 2-Ureido-5,6-dihydro-s-triazolo[5,1-a]isoquinoline] was tested, and the “inhibition of the carrageenin induced edema” value (100 mg./kg. p.o.) was “about 35%”.
